Data as given in US8415156B2, “Recombinant laminin-521” (Biolamina AB, priority 2010, dated 2013).

Legend:
Format in all cases: cell-based, human
OCT4 = test: FACS analysis for Oct4; conditions: after several single cell suspension passages, O3 medium without additives
Description: OCT4 expression was analyzed as described in Ludwig, T. E. et al. Derivation of human embryonic stem cells in defined conditions. Nat. Biotechnol. 24, 185-187 (2006). Cells were run on FACSCalibur Flow Cytometer (Becton Dickinson). Data were analyzed with CellQuest software (Becton Dickinson).

HS181 cells = test: Single cell survival / cell adhesion, 1 day after plating (Example 1)
Description: Human ES cells were cultured on r-laminin-521-coated laboratory dishes in chemically defined O3 medium (described in Rodin et al., Nature Biotechnol., vol. 28, pp. 611-615 (2010)) at 37° C. in 5% CO2. Cells were routinely passed once every 10-12 days by exposure to Trypsin-EDTA solution (GIBCO Invitrogen) for 5 minutes at 37° C. They were then gently pipetted to break into single-cell suspension and defined trypsin inhibitor (GIBCO Invitrogen) was added. The cell suspension was centrifuged […], the supernatant discarded, the cell pellet resuspended in prewarmed O3 medium, and cells were then passed through a 40 μm sieve. After that cells were plated on new r-laminin-521-coated dishes at a concentration 30 Kcells/cm^2 (1:25-1:30 split ratio). Cells were fed once a day with fresh medium prewarmed in an incubator for 1 hour, except for the first day after a passage, when only a few drops of fresh medium were added. Control cells of the same line were cultured on Matrigel (BD Biosciences) in O3 medium as described in Rodin et al., Nature Biotechnol., vol. 28, pp. 611-615 (2010). Control cells were passaged in pieces.
Ninety-six-well tissue cell culture plates were coated overnight at 4° C. with sterile solutions of the ECM proteins mouse LN-111 (Invitrogen), human recombinant LN-511, and human recombinant LN-521, all at a concentration of 30 μg/ml (5 μg/cm^2). For control cells, BD Matrigel™ hESC qualified (BD Biosciences) was used according to the manufacturer's instructions.
The assay was performed as described (Extracellular Matrix Protocols, 2000). Briefly, 96-well plates were coated by extracellular matrix proteins as described above and blocked by O3 medium containing bovine serum albumin. The ES cells were plated at a cell density of 600 cell/mm^2 upon extracellular matrix-coated plates and were left to adhere for either 1 hour or 1 day at the cell incubator. Non-adherent cells were washed away, and adherent cells were fixed for 20 min by 5% glutaraldehyde, stained by 0.1% Crystal Violet.

hES cells [1] = test: In vivo imaging and migration assay
Description: 24-well plates were coated by extracellular matrix proteins and blocked by O3 medium containing bovine serum albumin. The ES cells were plated at cell density of 30,000-40,000 cells/cm^2 onto extracellular matrix-coated plates and left to adhere for half an hour in a cell incubator. After that, the plate was transferred into high content imaging system Operetta (PerkinElmer) equipped with environmental control unit, which allowed to keep 37° C., 5% CO2. For two movies that were made, the brightfield images were taken once in 15 minutes during 24 hours after plating using Harmony software (PerkinElmer), exported, and analyzed using ImageJ software (NIH, the US). For migration assay the images were taken every seven minutes during 18 hours after plating. Images acquired between the fifth and seventh hours after plating were analyzed using MTrackJ plug-in (University Medical Center, Rotterdam, The Netherlands). 100 attached cells on each coating were traced and mean distances from the current to the previous point of the track were calculated. Error bars show standard error of the mean s.e.m. (n=100).

hES cells [2] = test: Clonal survival of individualized hES cells (Example 4); conditions: mTeSR1; 250 cells per cm^2; 5 days; alkaline phosphatase staining
Description: hES cells were plated in mTeSR1 medium on different coatings at a density of 250 cells per cm^2 and monitored after 5 days in culture using an alkaline phosphatase staining kit.
Next, combinations of laminin-521 and E-Cadherin were tested to determine whether the combinations could sustain clonal survival of the cells. Fixed amounts of laminin-521 were used for the cell culture dish coating in combination with titrated E-Cadherin.
Additional tests were performed to test the effects of various modifications to the mTeSR1 medium. A mixture of E-Cadherin to laminin-521 in a ratio of about 1:10 w/w was used to coat the plates. […] Time-lapse photography of the cells confirmed that laminin-521/E-Cadherin coatings facilitated cell survival through proliferation of the single cells, not through the aggregation of different cells.

hES cells [3] = test: Cell survival assay, 24 hours (Example 2)
Description: Tissue cell culture plates were coated overnight at 4° C. with sterile solutions of the ECM proteins, such as human recombinant LN-521, all at a concentration of 30 μg/ml (5 μg/cm^2). Control plates were coated with Matrigel according to the STEMCELL Technologies' instructions. Prior to use, dishes were pre-warmed in an incubator for one hour after which prewarmed O3 medium was added without additional washing of the dish. After applying a fresh LN-521 solution to a new dish, the remaining LN-521 solution could be used at least once more. All the adhesion, survival, and inhibition of survival experiments were carried out using fresh coating materials.
Briefly, 96-well plates were coated by extracellular matrix proteins as described above and blocked by O3 medium containing bovine serum albumin. The ES cells were plated at cell density of 50,000 cells/cm^2 onto extracellular matrix-coated plates and left to adhere for 1 hour in a cell incubator. After that the plates were washed 3 times with the medium to remove the non-adherent cells, and then the adherent cells were fixed for 20 minutes by 5% glutaraldehyde, stained by 0.1% Crystal Violet. (Kebo Lab, Spanga, Sweden, www.kebolab.se). After one hour and 3 washes with water, Crystal Violet was extracted with 10% acetic acid and quantified by measuring optical density at 570 nm. All the experiments were performed in quadruplicate.
The survival assay was performed as described for the cell adhesion assay above, except that the cells were left in the cell incubator for 24 hours. For inhibition of survival assay, the cells were kept in a medium with function blocking antibodies at the concentrations recommended by the manufacturer or pathway inhibitors at concentrations indicated in the text for 30 minutes, and then plated on the coated dishes. All the experiments were performed in quadruplicate.
Pluripotent hES cells express α1, α5, β1, β2 and γ1 laminin chains. To compare the adhesion and clonal survival of hES cells plated from single cell suspension to different coating substrata, hES cells growing as monolayers on LN-511 or as clusters on a feeder layer were trypsinized into single cell suspension in O3 medium and plated on cell culture dishes coated with Matrigel, LN-111, LN-511, LN-521 or a mixture of LN-511 and LN-521, in the absence or presence of a ROCK inhibitor (Y-27632) and analyzed after 24 hours.

Substance: LN-521: protein formed by joining α5, β2 and γ1 chains together; human recombinant, produced in HEK293 cells
- percentage of Oct4 positive (pluripotent) cells compared with Matrigel (OCT4): much higher percentage
- adhesion at 1 day without additives compared with dishes including the ROCK inhibitor (HS181 cells; 1 day after plating): similar
- adhesion at 1 day relative to Matrigel without additives (HS181 cells; 1 day after plating, without additives): 20 times
- adhesion at 1 day without additives compared with dishes including the ROCK inhibitor (HS181 cells; 1 day after plating, listed as LN-532): no ROCK inhibitor is necessary
- single cell survival / cells remaining attached 24 hours after plating (HS181 cells; O3 medium without any additives, completely dissociated HS181 cells): survived
- migration of cells (in vivo imaging) compared with Matrigel (hES cells [1]): much faster
- motility of hES cells between the fifth and seventh hours after plating (hES cells [1]; compared with Matrigel, LN-111, LN-511): higher than that of the cells on other coatings
- clonal survival of individualized hES cells (hES cells [2]): Neither laminin-521 nor E-Cadherin alone permitted efficient clonal survival
- survival of Y-27632 treated human ES cells on LN-521 compared with Matrigel (hES cells [3]; 10 μM of Y-27632, 40,000 cells per 1 cm^2): survived better
- survival on LN-521 compared with LN-511 (hES cells [3]; 24 hours, absence of ROCK inhibitor): significantly higher
- cell shape of cells growing on LN-521 24 hours after plating (hES cells [3]; LN-521 row: absence of ROCK inhibitor, Y-27632 row: presence of ROCK inhibitor): round
- survival relative to Matrigel, exogenous bFGF removed (hES cells [3]; O3 medium without exogenous bFGF): 20 times
- survival of hES cells plated from single cell suspension after 24 hours (hES cells [3]; O3 medium, absence of ROCK inhibitor): did so as single cells
- survival 24 hours after plating in medium lacking all growth factors of the TeSR1 formulation (hES cells [3]; no bFGF, LiCl, GABA, pipecolic acid and TGFβ): survived
